Values of other authors as cited in patent US20050079222A1, “Production of nanoparticles from methyl vinyl ether and maleic anhydride for the administration of hydrophilic pharmaceuticals, more particularly of puric and pyrimidinic bases” (priority 2001, published 2005).

System: tumors
Conditions: versus 5-fluorouracile

Structure (SMILES): O=c1[nH]c(=O)n([C@@H]2O[C@H](CO)[C@@H](O)[C@H]2O)cc1F [5-fluorouridine, 2,4-dioxo-5-fluoropyrimidine riboside]
- antitumoral activity, times more potent than 5-fluorouracile and other derivatives: 100 times
